This is an account of results in patent US20240216336A1, “CLOTRIMAZOLE AS A TREATMENT FOR IMMUNODEFICIENCY DISORDERS” (Northwestern University, priority 2020, published 2024).

The target of assay [1] is GAPDH (Mus musculus, UniProt P16858). As to the kind of experiment: GAPDH activity normalized to total protein in BMDMs. The arrangement: endogenous in cells. The note with it: LPS (200 ng/ml) + 1400W (50 μM). The assay is classed as cell-based. How it is done: BMDMs were isolated from ΔE1HK1 and WT mice as previously reported (Rodriguez et al., 2019). Briefly, bone marrow was isolated from the tibia and femur of 8-10-week-old mice by puncturing one end of the femur and tibia with a 27g needle and placing it in a 0.5 ml tube with a hole punched in the bottom. The 0.5 ml tube containing the bone was then placed in a 1.75 ml tube and centrifuged at 5,000×g for 3.5 minutes. Bone marrow was then collected into the 1.75 ml tube and resuspend in 1 ml of RBC lysis buffer (abcam) for 1 minute and then transferred to a 50 ml tube with 4 ml RBC lysis buffer and incubated for 4 minutes. Next, 35 ml of PBS was added and centrifuged at 300×g for 5 min and supernatant was then decanted and cell pellet was re-suspended in complete RPMI with 20 ng/ml mCSF (Preprotech). Cells were counted using a hemocytometer and plated in 10 cm tissue culture plates at a density of 3-million cells/plate. Cells were cultured with 20 ng/mL mCSF to induce differentiation into BMDMs. […]
(§1) The following kits were used according to the manufacturer's instructions: Promega NADP/NADPH quantification kit (G9081) and […] (G9071); Glyceraldehyde-3-Phosphate Dehydrogenase Activity Assay kit (abcam); ELISAs for IL-1β (DY401), IL-6 […].

In assay [2] the test system is PMs. As to the kind of experiment: IL-1β ELISA from media of PMs from NC and HFD mice. It counts as cell-based, mouse. The note with it: LPS (300 ng/ml) 6 hrs and ATP (2.5 mM) 30 min, 1400W. For orientation: ELISA stands for enzyme-linked immunosorbent assay.
Assay [3] concerns GAPDH. As to the kind of experiment: GAPDH IP and TMT switch S-nitrosylation western blot in BMDMs. It counts as cell-based, mouse. The note with it: LPS (200 ng/ml) treated BMDMs ±1400W. The procedure: GAPDH immunoprecipitation of HepG2 and BMDM cells was performed and nitrosylated cysteines were replaced with covalent binding of TMT using Pierce S-Nitrosylation western blot kit according to manufactures protocol. Briefly, free cysteines were blocked with MMTS reagent, lysates were treated with iodoTMT/ascorbate to induce replacement of unstable S-NO with stable S-TMT moiety. Western blot was then run on the TMT-replaced lysates and probed with GAPDH (dilution 1:8,000) and anti-TMT (dilution 1:1000).

Assay [4] has as its system BMDMs. The assay is described as follows: Seahorse ECAR trace of BMDMs. It counts as cell-based, mouse. The note with it: 5 hrs LPS (200 ng/ml) ±1400W (50 μM). The procedure: The day before the assay, the Seahorse cartridge was placed in the XF calibrant and incubated overnight at 37° C. On the day of the assay, cells were seeded into the Seahorse 96-well plate at 15,000 cells/80 μl per well for HepG2 cells or 100,000 cells/80 μl per well for BMDMs. The plates were incubated at RT for 1 hour in glucose free complete DMEM or RPMI without bicarbonate or phenol-red to allow even distribution of cells across the well floor. Before placing the sample plates in the Seahorse XF96 Analyzer, medium volume was adjusted to 175 μl in each well. 11 mM or 25 mM glucose for HepG2 cells or BMDMs respectively, Oligomycin at 2 μM, CCCP at 10 μM, and 2DG at […] each, diluted in DMEM, were injected sequentially into each well including control wells, containing only medium, following the standard Seahorse protocol. For acute injection of LPS, the first port of the drug cartridge was replaced with LPS at 200 ng/ml.

The subject of assay [5] is ΔE1HK1 mice. As to the kind of experiment: In vivo LPS i.p. injection with 1400W: splenic mRNA and serum ELISA of inflammatory cytokines. The arrangement: species or system mouse. As to conditions: LPS (15 mg/kg) i.p. + 1400W (10 mg/kg) i.p. How it is done:
(§2) RNA was isolated from cells or tissues using RNA-STAT60 (Teltest) followed by chloroform extraction and precipitation. Reverse transcription was carried out using qScript cDNA Synthesis Kit (Quanta Bio). The resulting cDNA was amplified quantitatively using PerfeCTa SYBR Green Mix (Quanta Bio) on a 7500 Fast Real-time PCR System (Applied Biosystems). The relative gene expression was determined using differences in Ct values between gene of interest and house-keeping control genes. Complete list of primers can be found in Key Reagents Table (Table 1).
LPS induced sepsis model in mice was approved by Northwestern University Institutional Animal Care and Use Committee. For short term LPS induced cytokine quantification, C57/B16 mice (aged 10-12 weeks) were treated i.p. with or without 1400W (10 mg/kg) for 2 hrs prior to i.p. treatment with ultrapure 05:B55 LPS from Invivogen (15 mg/kg) i.p. for 4 hours. Whole blood samples were harvested via cardiac puncture after mice were euthanized. Cytokine production in serum from whole blood was measured using the Mouse IL-1β (DY401), IL-6 (DY406), and TNFα (DY410) ELISAs from R&D. For survival studies, Crude 05:B55 LPS (Sigma) was administrated i.p. at a sub-lethal dose of 15 mg/kg and mice were monitored over 72 hrs, every 2-4 hrs for survival and signs of deterioration to determine humane endpoints (Shrum et al., 2014).

In assay [6] the test system is GAPDH. The assay is described as follows: GAPDH activity normalized to total protein in PMs from NC and HFD mice. The assay is classed as cell-based, mouse. As to conditions: LPS (300 ng/ml) + 1400W (50 μM) for 4 hrs. How it is done: Peritoneal macrophages were isolated from 8-10-week-old ΔE1HK1 and littermate control WT mice by peritoneal lavage as described previously (Ray and Dittel, 2010). Briefly, mice were euthanized and the peritoneal cavity was injected with PBS supplemented with 5% FBS using a 27g needle. The abdominal wall was gently agitated to dislodge peritoneal cells. Using a fresh 25g needle, the peritoneal lavage (PBS and peritoneal cells) was aspirated and collected. Cells were then centrifuged at 500 g for 10 min and re-suspended in 1 mL of complete RPMI (Corning) supplemented with 10% FBS (Atlanta Biologicals), 2 mM glutamine (HyClone), 1 mM HEPES (Corning) and 1 mM pyruvate (Corning). Stimulation with LPS (Invivogen) was performed the next day. 300 ng/ml of LPS was given to the cells for 4-6 hrs with or without the following drugs; OT (50 μM), 6-AN (1 mM), 1400W (50 μM), or CGP3466 (50 nM).
as §1

Assay [7] deals with BMDMs. The assay is described as follows: Inflammatory cytokine mRNA expression (quantitative RT-PCR) in BMDMs. The note with it: 4 hrs LPS (200 ng/ml) + 1400W (50 μM). The assay is classed as cell-based, mouse. The procedure: BMDMs were isolated from ΔE1HK1 and WT mice as previously reported (Rodriguez et al., 2019). Briefly, bone marrow was isolated from the tibia and femur of 8-10-week-old mice by puncturing one end of the femur and tibia with a 27g needle and placing it in a 0.5 ml tube with a hole punched in the bottom. The 0.5 ml tube containing the bone was then placed in a 1.75 ml tube and centrifuged at 5,000×g for 3.5 minutes. Bone marrow was then collected into the 1.75 ml tube and resuspend in 1 ml of RBC lysis buffer (abcam) for 1 minute and then transferred to a 50 ml tube with 4 ml RBC lysis buffer and incubated for 4 minutes. Next, 35 ml of PBS was added and centrifuged at 300×g for 5 min and supernatant was then decanted and cell pellet was re-suspended in complete RPMI with 20 ng/ml mCSF (Preprotech). Cells were counted using a hemocytometer and plated in 10 cm tissue culture plates at a density of 3-million cells/plate. Cells were cultured with 20 ng/mL mCSF to induce differentiation into BMDMs. Media was changed every 2 days and BMDMs were harvested by scraping on day 6 and plated in 12 well plates at a density of 1-million cells/well for mRNA extraction experiments. BMDMs were stimulated in the same manner as peritoneal macrophages (LPS dose for BMDMs was 200 ng/ml).
as §2

Molecules are shown by their SMILES.

Chain of GAPDH (Mus musculus, UniProt P16858) (P16858 whole entry): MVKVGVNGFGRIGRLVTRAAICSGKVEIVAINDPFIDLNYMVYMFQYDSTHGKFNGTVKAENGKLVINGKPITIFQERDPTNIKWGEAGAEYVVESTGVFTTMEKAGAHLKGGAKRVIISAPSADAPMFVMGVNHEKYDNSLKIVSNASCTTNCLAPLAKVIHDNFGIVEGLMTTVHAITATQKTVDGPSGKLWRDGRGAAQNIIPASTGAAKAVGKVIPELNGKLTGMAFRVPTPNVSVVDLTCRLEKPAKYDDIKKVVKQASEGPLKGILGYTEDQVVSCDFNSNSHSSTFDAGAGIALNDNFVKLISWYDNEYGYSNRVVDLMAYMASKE

In the case of `CC(N)=NCc1cccc(CN)c1.Cl.Cl` [1400W], the “GAPDH activity of ΔE1HK1 BMDMs” value in assay [1] is “restored to WT levels”. Moreover, in assay [2], the “elevation in IL-1β in HFD PMs (ELISA)” value was “reversed”. Also, the “higher GAPDH nitrosylation in BMDMs from ΔE1HK1 mice” value in assay [3] is reported as “reversible”. Further, in assay [4], the “differences in ECAR between ΔE1HK1 and WT BMDMs” value is given as “eliminated the differences”. Further, in assay [5], the “hyper-inflammatory response in ΔE1HK1 mice, serum ELISA IL-1β” value was “rescue”; the “hyper-inflammatory response in ΔE1HK1 mice, serum ELISA IL-6” value was “rescue”; the “hyper-inflammatory response in ΔE1HK1 mice, serum ELISA TNFα” value is reported as “rescue”; the “hyper-inflammatory response in ΔE1HK1 mice, splenic IL-1β mRNA” value was “rescue”. Further, in assay [5], the “hyper-inflammatory response in ΔE1HK1 mice, splenic IL-6 mRNA” value is on record as “rescue” and the “hyper-inflammatory response in ΔE1HK1 mice, splenic TNFα mRNA” value is “rescue”. Further, in assay [6], the “lower GAPDH activity in PMs of HFD mice” value is “rescued”. In addition, in assay [7], the “hyper-inflammatory response of ΔE1HK1 BMDMs, IL-1β mRNA” value is “reversal”; the “hyper-inflammatory response of ΔE1HK1 BMDMs, IL-6 mRNA” value is listed as “reversal”; the “hyper-inflammatory response of ΔE1HK1 BMDMs, TNFα mRNA” value is “reversal”.
